Experimental data as given in patent publication US12569460B2, “Application of thyroid hormones and thyroid hormone analogues to preparation of drugs for treating sickle-cell disease” (RUIJIN HOSPITAL, SHANGHAI JIAO TONG UNIVERSITY SCHOOL OF …, priority 2020, dated 2026).

Legend:
[1] = test system: ζ-globin gene (hbae5); test: qPCR of ζ-globin gene (hbae5) expression in zebrafish embryos; type: in vivo; conditions: 5 μmol/L, 24 hours
Description: (§1) K562 cells were cultured in RPMI 1640 medium supplemented with 10% (v/v) fetal bovine serum; Hemin was dissolved into 0.2 mol/L NaOH solution, and the working concentration for treating K562 cells is 20 μmol/L; Triac, T3 and T4 were dissolved into dimethyl sulfoxide (DMSO), and the working concentration for treating K562 cells and zebrafish embryos is 20 μmol/L and 5 μmol/L, respectively.
After treatment with Triac, T3 and T4 for 24 hours, respectively, zebrafish embryos were collected. TRIzol reagent (Invitrogen) was used to extract total RNA, then a reverse transcription kit (ReverTra Ace, TOYOBO) was used to synthesize cDNA, and finally, a SYBRGreen Realtime PCR Master Mix (TOYOBO) reagent was used to perform quantitative PCR.
(§2) The quantitative PCR reaction system is:
(§3) The quantitative PCR reaction conditions are: • hot start: 95° C., 10 minutes; • denaturation: 95° C., 10 seconds; and • annealing/extension: 60° C., 30 seconds. • 40 circles. Analysis of a […]

[2] = test system: ζ-globin gene (hbae5); test: Whole-mount mRNA in situ hybridization (WISH) of ζ-globin gene (hbae5) in zebrafish embryos; type: in vivo; conditions: 5 μmol/L, 24 hours
Description: as §1
After treatment with Triac, T3 and T4 for 24 hours, respectively, zebrafish embryos were fixed by 4% paraformaldehyde. The expression of ζ-globin gene (hbae5) was detected by Whole-mount mRNA in situ hybridization (WISH).

[3] = test system: ζ-globin gene (HBZ); test: qPCR of ζ-globin gene (HBZ) expression in hemin-treated K562 cells; type: cell-based, human; conditions: hemin plus Triac 20 μmol/L, 72 hours
Description: as §1
K562 cells were treated with hemin or hemin plus Triac for 72 hours, respectively, centrifugation was performed at 2000 rpm for 5 minutes to collect cells, a TRIzol reagent (Invitrogen) was used to extract total RNA, then a reverse transcription kit (ReverTra Ace, TOYOBO) was used to synthesize cDNA, and finally, a SYBR Green Realtime PCR Master Mix (TOYOBO) reagent was used to perform quantitative PCR.
as §2, §3

`N[C@@H](Cc1cc(I)c(Oc2cc(I)c(O)c(I)c2)c(I)c1)C(=O)O` [T4, 3,3′,5,5′-tetraiodothyronine] was tested, and the “expression of ζ-globin gene (hbae5) up-regulated (qPCR)” value [1] was 41 folds and the “expression of ζ-globin gene (hbae5) by WISH” value (shortened to “expression … by WISH”) [2] was “significantly induce the expression”.
`N[C@@H](Cc1cc(I)c(Oc2ccc(O)c(I)c2)c(I)c1)C(=O)O` [T3, 3,3′,5-Triiodo-L-thyronine] was tested, and the “expression of ζ-globin gene (hbae5) up-regulated (qPCR)” value [1] was 31 folds and the “expression … by WISH” value [2] was “significantly induce the expression”.
For `O=C(O)Cc1cc(I)c(Oc2ccc(O)c(I)c2)c(I)c1` [Triac, 2-[4-(4-Hydroxy-3-iodophenoxy)-3,5-diiodophenyl] acetic acid], the “expression of ζ-globin gene (hbae5) up-regulated (qPCR)” value [1] was 76 folds, the “expression … by WISH” value [2] was “significantly induce the expression” and the “expression of ζ-globin gene (HBZ) up-regulated (qPCR)” value [3] was 50.9 folds.
